The test system of the test is Life-threatening iron-deficiency anemic rats. The test can be described thus: Hemoglobin concentration after single oral dose in rats with induced life-threatening hemorrhagic anemia. The test is classed as in vivo, Albino rats of the Wisconsin Holtzman strain. Conditions: Ferric Chloride given orally to anemic rats (group 4). How it is done:
Part II: Animal Trial Experimental Design • Five weeks old Albino rats of the Wisconsin Holtzman strain, weighing 150-160 g, were divided into six, as showing below Rats of groups 1-5 were exposed daily to blood withdrawal from inner canthus of eyes. The hemoglobin concentration of collected blood samples in heparinized tubes was measured by colorimetric method using commercially available kit (Drabkin's solution). […] Rats of control group were not exposed to any blood withdrawal. After induction of Life-threatening hemorrhagic anemia, all rats were fasted for 6 hours prior their oral administration with different treatments and doses. […] Two control groups were allocated for this pilot experiment; group 5 where rats were exposed to Life-threatening hemorrhagic anemia and treated with the vitamins mixture dissolved with Nano sized magnetite (Ascorbic, folic and nicotinic acids), and group 6 where rats were non-anemic and administered distilled water (Table 1). Rats of different groups were left for 3 days after oral administration of different treatments, fed ad libitum on balanced diet containing iron and clean tap water. Blood samples were collected on 4th and 7th day after dosing and Hb concentration was measured using colorimetric method.

SMILES strings stand for the structures.

Consider `[Cl][Fe]([Cl])[Cl]` [Ferric Chloride], for which the “Effect on Hb. concentration” value is on record as “corrected the Hb. concentration but achieved neither the levels in Nano-sized magnetite groups nor the level in control non-anemic rats”.
